Read-outs that look alike come from different tables or passages of the source.
Legend:
[1] = system: L. infantum promastigotes; test: Leishmanicidal activity on promastigotes (PI exclusion, flow cytometry); assay type: cell-based, Leishmania infantum; settings: for EC50: Leishmania infantum, 24 h at 26 °C, read-out: EC50 promastigotes
Description: (§1) L. infantum promastigotes (MCAN/ES/89/IPZ229/1/89) were grown in Roswell Park Memorial Institute (RPMI)-1640 medium (Sigma-Aldrich, St. Louis, MO) supplemented with 10% heat-inactivated fetal calf serum (FCS), antibiotics, and 25 mM HEPES (pH 7.2) at 26 °C. L. infantum axenic amastigotes (MCAN/ES/89/IPZ229/1/89) were grown in M199 medium (Invitrogen, Leiden, The Netherlands) supplemented with 10% heat-inactivated FCS, 1 g/L β-alanine, 100 mg/L L-asparagine, 200 mg/L sucrose, 50 mg/L sodium pyruvate, 320 mg/L malic acid, 40 mg/L fumaric acid, 70 mg/L succinic acid, 200 mg/L α-ketoglutaric acid, 300 mg/L citric acid, 1.1 g/L sodium bicarbonate, 5 g/L morpholineethanesulfonic acid (MES), 0.4 mg/L hemin, and 10 mg/L gentamicine, pH 5.4, at 37 °C.
(§2) Drug treatment of L. infantum promastigotes was performed during the logarithmic growth phase at a concentration of 2 × 10^6 parasites/mL at 26 °C for 24 h. […] EC50 was evaluated by flow cytometry by the propidium iodide (PI) exclusion method. After selection of the parasite population based on their forward scatter (FSC) and side scatter (SSC) values, live and dead parasite cells were identified by their permeability to PI. All of the assays were conducted in triplicate in at least three independent experiments. Data were analyzed using a nonlinear regression model with GraFit 6 software (Erithacus, Horley, Surrey, U.K.).

[2] = system: L. infantum axenic amastigotes; test: Leishmanicidal activity on axenic amastigotes (PI exclusion, flow cytometry); assay type: cell-based, Leishmania infantum; settings: for EC50: Leishmania infantum, axenic amastigotes, 24 h at 37 °C, read-out: EC50 amastigotes
Description: as §1
Axenization was performed by diluting 0.5 mL of a 7-day stationary phase culture of L. infantum promastigotes (2–3 × 10^7 parasites/mL) in 4.5 mL of amastigotes medium and incubating the culture at 37 °C for 2 or 3 days. L. infantum axenic amastigotes apparition was followed by phase-contrast microscopy using an Eclipse Ti inverted microscope (Nikon, Tokyo, Japan).
as §2

HepG2 cells = test: Cellular toxicity, crystal violet assay; assay type: cell-based; settings: Homo sapiens, HepG2; 24 h, crystal violet method; read-out: EC50 HepG2
Description: Liver hepatocellular carcinoma HepG2 cells were grown in Dulbecco’s modified Eagle’s medium (DMEM) (Sigma-Aldrich, St. Louis, MO) with 10% heat-inactivated FCS, antibiotics, and 10 mM HEPES.
Drug treatment of liver hepatocellular carcinoma HepG2 cells was performed at a concentration of 10^5 cells/mL at 37 °C and 5% CO2 for 24 h. EC50 was evaluated by the crystal violet assay. Briefly, cells were washed with phosphate-buffered saline (PBS) and stained with 200 μL of crystal violet solution (0.2% crystal violet, 2% ethanol) for 10 min at room temperature. Next, the plates were washed twice with tap water and allowed to dry. The stained cells were solubilized with 400 μL of 1% sodium dodecyl sulfate (SDS), and the color intensity was quantified at 570 nm using an EnSpire Multimode Plate Reader (PerkinElmer, Waltham, MA). All of the assays were conducted in triplicate in at least three independent experiments. Data were analyzed using a nonlinear regression model with GraFit 6 software (Erithacus, Horley, Surrey, U.K.).

[3] = system: L. infantum intracellular amastigotes; test: Leishmanicidal activity in amastigote-infected THP-1 monocyte-derived macrophages; assay type: cell-based, Leishmania infantum
Description: (§3) THP-1 monocytes were seeded in a 48-well plate at a concentration of 5 × 10^5 cells/mL (250 μL/well) in RPMI complete medium supplemented with phorbol 12-myristate 13-acetate (PMA) (100 ng/mL). Differentiation of THP-1 monocytes to macrophages was allowed for 24 h at 37 °C and 5% CO2. THP-1-derived macrophages were infected with GFP-expressing axenic amastigotes at 5 × 10^6 parasites/mL in RPMI complete medium for 24 h (250 μL/well). Extracellular amastigotes were washed twice with PBS. The remaining extracellular parasites were challenged for 24 h with THP-1 medium supplemented with 10% horse serum (Gibco) instead of FCS. Cells were washed twice with PBS, and treatments were performed in 250 μL of fresh RPMI medium supplemented with 10% horse serum for 72 h at 37 °C and 5% CO2. Afterward, treatments were removed by two PBS washes. Lysis of infected cells was performed with 120 μL of SDS 0.005% (w/v) in PBS. After a 30 min incubation at 37 °C, lysis was stopped by adding RPMI complete medium with PI at 20 μg/mL (120 μL/well). The lysates were transferred to a 96-well plate (200 μL/well), and the GFP^+ amastigotes extracted from the infected cells were acquired by a Beckman Coulter FC500 flow cytometer. Each sample (100 μL) was acquired for 20 s.
The relative number of GFP^+ intracellular amastigotes per cell in each sample was estimated after the division of the total number of GFP+ amastigotes by the LDH activity value of the sample. Results were normalized to the vehicle-treated controls. EC50 values of intracellular amastigotes were calculated using a nonlinear regression model with GraFit 6 software (Erithacus, Horley, Surrey, U.K.). All of the assays were conducted in at least three independent experiments.

[4] = system: THP-1 monocyte-derived macrophages; test: Cytotoxicity in THP-1 monocyte-derived macrophages (LDH activity); assay type: cell-based, human; settings: LDH activity
Description: THP-1 cells were grown in RPMI-1640 medium (Gibco, Leiden, The Netherlands) supplemented with 10% heat-inactivated FCS, antibiotics, 10 mM HEPES, 2 mM glutamine, and 1 mM sodium pyruvate, pH 7.2, at 37 °C and 5% CO2.
as §3
Cytotoxicity of THP-1 infected macrophages was determined using an in-house developed lactate dehydrogenase (LDH) activity assay. LDH activity assays from the remaining cell lysates (100 μL/well) were carried out at 37 °C in 250 μL of Tris/HCl buffer (pH 8.9, 50 mM) containing DL-lactate (840 mM), NAD^+ (450 μM), 1-methoxyphenazine methosulfate (45 μM), and nitro blue tetrazolium chloride (40 μM). The color intensity of the generated formazan dye was monitored at 570 nm using an EnSpire Multimode Plate Reader (PerkinElmer, Waltham, MA). CC50 values were calculated using a nonlinear regression model with GraFit 6 software (Erithacus, Horley, Surrey, U.K.).

TbTryR = target: T1, TbTryR (Trypanosoma brucei brucei, UniProt P39051); test: TryR oxidoreductase activity, DTNB-coupled assay (TbTryR); assay type: biochemical; settings: read-out: IC50, oxidoreductase activity of TbTryR
T1 construct: HIS; made in house; host or cells: E. coli
T1 sequence (P39051 whole entry): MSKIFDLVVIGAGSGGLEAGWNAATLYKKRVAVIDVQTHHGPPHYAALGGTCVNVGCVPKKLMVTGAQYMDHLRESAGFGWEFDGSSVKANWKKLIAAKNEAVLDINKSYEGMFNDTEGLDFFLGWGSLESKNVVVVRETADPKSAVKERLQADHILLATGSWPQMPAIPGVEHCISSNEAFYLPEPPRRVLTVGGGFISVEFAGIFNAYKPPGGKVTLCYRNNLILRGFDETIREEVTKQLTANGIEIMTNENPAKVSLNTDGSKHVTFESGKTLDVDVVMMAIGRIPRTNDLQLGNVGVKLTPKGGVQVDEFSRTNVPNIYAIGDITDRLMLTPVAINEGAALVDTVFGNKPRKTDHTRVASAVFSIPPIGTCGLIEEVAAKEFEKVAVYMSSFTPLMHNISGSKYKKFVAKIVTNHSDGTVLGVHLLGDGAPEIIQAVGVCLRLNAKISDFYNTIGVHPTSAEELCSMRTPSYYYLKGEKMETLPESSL
Description: (§4) The DNA coding sequences for Homo sapiens GR, T. brucei TryR, and T. congolense TryR were polymerase chain reaction (PCR)-amplified and cloned in the pRSETA plasmid. The DNA coding for hGR (transcript variant 1; NCBI Reference Sequence: NM_000637.5) was purchased from GeneScript. Genomic DNA from T. congolense parasites was kindly provided by Dr. Stefan Magez (University of Vrije, Brussels). Genomic DNA from the T. brucei S16 cell line was kindly provided by José M. Pérez-Victoria. Instituto de Parasitología y Biomedicina “López—Neyra” CSIC. HIS-tagged recombinant T. brucei and T. congolense TryRs (TbTryR and TcoTryR, respectively) were purified from E. coli as already explained for LiTryR.
(§5) TryR oxidoreductase activity was determined spectrophotometrically using a modified version of the DTNB-coupled assay described by Hamilton et al.[52] Briefly, reactions were carried out at 26 °C in 250 μL of N-(2-hydroxyethyl)piperazine-N′-ethanesulfonic acid (HEPES) buffer (pH 7.5, 40 mM) containing ethylenediaminetetraacetic acid (EDTA) (1 mM), NADP^+ (30 μM), DTNB (25 μM), TS2 (1 μM), NADPH (150 μM), glycerol (0.02%), DMSO (1.75%), and recombinant TryR (7 nM). […] Reactions were started by addition of a mixture of NADPH and TS2.
(§6) TryR oxidoreductase activity was monitored at 26 °C by an increase in absorbance at 412 nm in an EnSpire Multimode Plate Reader (PerkinElmer, Waltham, MA). […] (TNB) concentration was obtained by multiplying the absorbance values by 100 (50 μM TNB generates 0.5 arbitrary units of absorbance at 412 nm). In this DTNB-coupled assay, one molecule of T(SH)2 reduces one molecule of DTNB, producing two TNB molecules. All of the assays were conducted in at least three independent experiments. Data were analyzed using a nonlinear regression model with GraFit 6 software (Erithacus, Horley, Surrey, U.K.).

TcoTryR = target: T2, TcoTryR (Trypanosoma congolense, UniProt P13110); test: TryR oxidoreductase activity, DTNB-coupled assay (TcoTryR); assay type: biochemical
T2 construct: HIS; made in house; host or cells: E. coli
T2 sequence (P13110 whole entry): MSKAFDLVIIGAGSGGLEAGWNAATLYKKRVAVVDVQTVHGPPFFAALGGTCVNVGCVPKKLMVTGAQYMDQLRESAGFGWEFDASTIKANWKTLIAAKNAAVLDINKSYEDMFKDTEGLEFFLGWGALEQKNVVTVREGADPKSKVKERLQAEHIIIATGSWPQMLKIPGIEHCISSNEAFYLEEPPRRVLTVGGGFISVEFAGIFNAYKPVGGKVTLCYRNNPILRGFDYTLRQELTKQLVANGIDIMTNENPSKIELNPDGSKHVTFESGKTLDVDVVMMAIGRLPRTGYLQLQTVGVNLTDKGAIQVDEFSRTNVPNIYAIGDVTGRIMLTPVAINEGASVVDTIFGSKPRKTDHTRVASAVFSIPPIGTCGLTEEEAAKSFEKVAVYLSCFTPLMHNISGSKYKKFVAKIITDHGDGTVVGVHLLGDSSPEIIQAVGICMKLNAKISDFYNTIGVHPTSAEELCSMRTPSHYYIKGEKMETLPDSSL
Description: as §4, §5, §6

[5] = Leishmania infantum, THP-1, 72 h, amastigote-infected THP-1 macrophages, 72 h, read-out: EC50 intracellular amastigotes

Compound	SIp (ratio of EC50 against human cells to EC50 against promastigotes) ([1]; HepG2 / promastigotes)	EC50 [1]	SIa (ratio of EC50 against human cells to EC50 against amastigotes) ([2]; HepG2 / axenic amastigotes)	EC50 [2]	EC50 (HepG2 cells)	EC50 [3, 5]	EC50 ([4]; Homo sapiens, THP-1)	IC50 (TbTryR)	IC50 (TcoTryR)	EC50 ([3]; Leishmania infantum, THP-1, 72 h, read-out: EC50 intracellular amastigotes, amastigote-infected THP-1 macrophages, 72 h)	SI (intracellular amastigotes) ([3]; THP-1 / intracellular amastigotes)	EC50 ([3]; amastigote-infected THP-1 macrophages, 72 h, read-out: EC50 intracellular amastigotes)	EC50 [4]
CCCCCCCCCCCCCCCCOP(=O)([O-])OCC[N+](C)(C)C [miltefosine, reference compound]	> 1.6	47.6 ± 0.6 µM	> 37.5	2 ± 0.1 µM	> 75 µM	0.6 ± 0.1 µM	> 25 µM	–	–	–	–	–	–
NCCCCc1cn(-c2ccc(-c3nc(CCc4ccccc4)cs3)c(OCCN3CCNC3=O)c2)nn1 [12a, 1-(2-(5-(4-(4-Ammoniumbutyl)-1H-1,2,3-triazol-1-yl)-2-(4-phenethylthiazol-2-yl)phenoxy)ethyl)imidazolidin-2-one 2,2,2-Trifluoroacetate]	–	16.4 ± 0.9 µM	–	13.9 ± 0.6 µM	20.3 ± 2.4 µM	–	45 ± 3.1 µM	13.3 ± 1.9 µM	11 ± 1.3 µM	32.4 ± 6.7 µM	–	–	–
edelfosine [reference compound]	–	–	–	–	–	–	–	–	–	–	1.4	2.5 ± 0.02 µM	3.5 ± 0.3 µM
C[C@@H]1[C@H](O)[C@@H](C)/C=C/C=C/C=C/C=C/C=C/C=C/C=C/[C@H](O[C@@H]2O[C@H](C)[C@@H](O)[C@H](N)[C@@H]2O)C[C@@H]2O[C@](O)(C[C@@H](O)C[C@@H](O)[C@H](O)CC[C@@H](O)C[C@@H](O)CC(=O)O[C@H]1C)C[C@H](O)[C@H]2C(=O)O [amphotericin B, reference compound]	–	–	–	–	–	0.07 ± 0.01 µM	> 5 µM	–	–	–	–	–	–
